This passage reports IC50 results from BindingDB's records for PubMed 32222663 (n/a, 2020).

The term IC50 denotes the concentration that gives 50% inhibition.

This experiment has as its target T1, Heparanase (Homo sapiens, UniProt Q9Y251).
T1 sequence (Q9Y251 whole entry): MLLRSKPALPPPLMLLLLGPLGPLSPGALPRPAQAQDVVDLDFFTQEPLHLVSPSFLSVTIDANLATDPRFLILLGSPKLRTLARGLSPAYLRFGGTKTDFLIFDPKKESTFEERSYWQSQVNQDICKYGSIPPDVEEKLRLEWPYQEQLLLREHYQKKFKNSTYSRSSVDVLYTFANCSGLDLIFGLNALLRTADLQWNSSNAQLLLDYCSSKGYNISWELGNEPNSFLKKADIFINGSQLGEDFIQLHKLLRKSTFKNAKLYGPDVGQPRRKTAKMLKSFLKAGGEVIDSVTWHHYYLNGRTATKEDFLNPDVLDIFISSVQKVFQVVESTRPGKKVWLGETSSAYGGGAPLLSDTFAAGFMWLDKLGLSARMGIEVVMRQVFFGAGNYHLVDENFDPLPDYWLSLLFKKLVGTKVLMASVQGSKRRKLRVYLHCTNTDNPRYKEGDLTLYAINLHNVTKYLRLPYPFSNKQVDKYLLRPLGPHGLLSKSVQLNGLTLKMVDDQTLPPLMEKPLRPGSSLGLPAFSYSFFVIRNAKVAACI
Kind of experiment: Inhibition of recombinant human heparanase incubated for 4 hrs by beta-scintillation counter analysis.

For the compound `O=S(=O)(O)OC[C@H]1O[C@H](O[C@H]2[C@H](OS(=O)(=O)O)[C@H](OS(=O)(=O)O)C(C3O[C@H](COS(=O)(=O)O)[C@@H](O[C@H]4O[C@H](COS(=O)(=O)O)[C@@H](O[C@H]5O[C@H](COS(=O)(=O)O)[C@@H](OS(=O)(=O)O)[C@H](OS(=O)(=O)O)[C@@H]5OS(=O)(=O)O)[C@H](OS(=O)(=O)O)[C@@H]4OS(=O)(=O)O)[C@H](OS(=O)(=O)O)[C@@H]3OS(=O)(=O)O)O[C@@H]2COS(=O)(=O)O)[C@@H](OS(=O)(=O)O)[C@@H](OS(=O)(=O)O)[C@@H]1O[C@H]1O[C@H](COS(=O)(=O)O)[C@@H](OS(=O)(=O)O)[C@H](OS(=O)(=O)O)[C@@H]1OS(=O)(=O)O` (stereo partly specified), the IC50 was found to be 5 nM.
